The values below are quoted from earlier work in patent US20250205171A1, “TRANSDERMAL DELIVERY SYSTEMS FOR CERTAIN FACTOR Xa INHIBITORS AND RELATED METHODS FOR THEIR PREPARATION AND USE” (ARx, LLC, priority 2022, published 2025).

Regarding `COc1ccc(-n2nc(C(N)=O)c3c2C(=O)N(c2ccc(N4CCCCC4=O)cc2)CC3)cc1` [apixaban], the water solubility entry is reported as “about 0.11 mg/mL”.

Take `COc1ccc(NC(=O)c2ccc(C(=N)N(C)C)cc2)c(C(=O)Nc2ccc(Cl)cn2)c1` [betrixaban]: the water solubility was 2500 to 2700 µg/mL.

In the case of `COc1ccc(C(=O)Nc2cccc(O)c2NC(=O)c2ccc(N3CCCN(C)CC3)cc2)cc1` [darexaban], the water solubility entry is “about 0.0048 mg/mL”.

For `CN1CCc2nc(C(=O)N[C@@H]3C[C@@H](C(=O)N(C)C)CC[C@@H]3NC(=O)C(=O)Nc3ccc(Cl)cn3)sc2C1` [edoxaban], the water solubility result was “about 0.093 mg/mL”.

Turning to `CO[C@@H]1C[C@H](C(=O)Nc2ccc(-n3ccccc3=O)cc2F)N(C(=O)Nc2ccc(Cl)cc2)C1` [eribaxaban], the water solubility result is given as “about 0.00717 mg/mL”.

For the compound `CO[C@H]1O[C@H](COS(=O)(=O)O)[C@@H](O[C@@H]2O[C@@H](C(=O)O)[C@@H](O[C@H]3O[C@H](COS(=O)(=O)O)[C@@H](O[C@@H]4O[C@H](C(=O)O)[C@@H](O[C@H]5O[C@H](COS(=O)(=O)O)[C@@H](O)[C@H](O)[C@H]5NS(=O)(=O)O)[C@H](O)[C@H]4O)[C@H](OS(=O)(=O)O)[C@H]3NS(=O)(=O)O)[C@H](O)[C@H]2OS(=O)(=O)O)[C@H](O)[C@H]1NS(=O)(=O)O` [fondaparinux], the water solubility result is listed as “about 7.91 mg/mL”.

For `O=C([C@H](O)CS(=O)(=O)c1ccc2cc(Cl)ccc2c1)N1CCC(N2CCCNC2=O)CC1` [letaxaban], the water solubility result is given as “about 0.217 mg/mL”.

In the case of `COC(=O)[C@H](Cc1cccc(C(=N)N)c1)[C@@H](C)NC(=O)c1ccc(-c2cc[n+]([O-])cc2)cc1` [otamixaban], the water solubility result is “about 0.0088 mg/mL”.

On to `O=C(NC[C@H]1CN(c2ccc(N3CCOCC3=O)cc2)C(=O)O1)c1ccc(Cl)s1` [rivaroxaban], for which the water solubility entry is given as “about 0.01 mg/mL”.
